GI50 and TGI data for 16 compounds are collected here from PubChem BioAssay (NCI).

Test systems include SF-268 CNS; HCT-15 colon; SNB-19 CNS; M14 melanoma; SK-MEL-2 melanoma; EKVX NSCLC; MALME-3M melanoma; SK-MEL-28 melanoma; ACHN renal; LOX IMVI melanoma.
Assay in all cases: NCI-60 cell line screen, 48 h

Several values for one entry are separate records, joined by “and”; a condition that tells them apart may be missing. Equal entries are not always repeated.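 Briefly, cells in 96-well plates were exposed to five compound concentrations for 48 h, and endpoints were estimated by linear interpolation. GI50 is the concentration that inhibits growth by half. TGI marks complete inhibition of growth.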 A value given as a limit tells only on which side of the number the result lay.

Regarding `Nc1ncn([C@@H]2S[C@H](CO)[C@@H](O)[C@@H]2F)c(=O)n1`, the GI50 with SF-268 CNS is 4.28 µM; with HCT-15 colon, 2.7 µM; in the test on SNB-19 CNS, 0.662 µM; with M14 melanoma it was 0.377 µM; in the test with SK-MEL-2 melanoma, greater than 100 µM; in the test with EKVX NSCLC it was 8.97 µM. In addition, the GI50 with MALME-3M melanoma is 5.13 µM; with SK-MEL-28 melanoma, greater than 100 µM; with ACHN renal, 0.297 µM; in the test on LOX IMVI melanoma, 1.16 µM. Moreover, the TGI with SF-268 CNS is greater than 100 µM; with HCT-15 colon, greater than 100 µM; with SNB-19 CNS it was greater than 100 µM; with M14 melanoma it was 30.1 µM; with SK-MEL-2 melanoma, greater than 100 µM; in the test on EKVX NSCLC, greater than 100 µM. Besides, the TGI in the test on MALME-3M melanoma, in the test on SK-MEL-28 melanoma and in the test with LOX IMVI melanoma was greater than 100 µM throughout.

With `Cn1ncc(-c2ccc3c(=O)[nH]nc(CN)c3c2)c1-c1c(F)c(Cl)cc(OC2CC2)c1C#N`, the GI50 was 14.1 µM and 12.8 µM with SF-268 CNS; 14.7 µM and 14.3 µM in the test on HCT-15 colon; 15.3 µM and 14.6 µM with SNB-19 CNS; 14.2 µM and 13.4 µM in the test with M14 melanoma; 15.3 µM and 13.6 µM in the test with SK-MEL-2 melanoma; 14.9 µM and 14 µM in the test with EKVX NSCLC. Moreover, the GI50 in the test on MALME-3M melanoma was 14.2 µM and 12.2 µM; in the test with SK-MEL-28 melanoma it was 14.3 µM and 13.7 µM; in the test with ACHN renal, 15.8 µM and 15.3 µM; with LOX IMVI melanoma it was 12.5 µM and 12.9 µM. Further, the TGI in the test with SF-268 CNS is 28.8 µM and 26.7 µM; in the test with HCT-15 colon, 30 µM and 28.9 µM; with SNB-19 CNS, 31.7 µM and 29.5 µM; in the test on M14 melanoma it was 28.9 µM and 27.5 µM; in the test with SK-MEL-2 melanoma, 29.1 µM and 26.8 µM; in the test with EKVX NSCLC, 30.5 µM and 29.6 µM. Besides, the TGI is 28.8 µM and 25.5 µM in the test on MALME-3M melanoma; 27.8 µM and 27.2 µM with SK-MEL-28 melanoma; 30.5 µM and 28.9 µM in the test on ACHN renal; 25.6 µM and 26.2 µM in the test on LOX IMVI melanoma.

Consider `FC(F)(F)c1cccc(-c2nc3nc(Cl)c(Cl)nc3[nH]2)c1`, for which the TGI with SF-268 CNS is greater than 65.8 µM; with HCT-15 colon, greater than 38.6 µM; in the test on SNB-19 CNS, greater than 59.2 µM; with M14 melanoma, 30.8 µM; in the test with SK-MEL-2 melanoma it was 6.02 µM; with EKVX NSCLC it was 23.2 µM. Further, the TGI is 12.5 µM in the test with MALME-3M melanoma, 27.3 µM in the test on SK-MEL-28 melanoma, greater than 28.2 µM with ACHN renal and 13.1 µM in the test on LOX IMVI melanoma.

As to `CCc1c2c(nc3ccc(OCc4ccc(B(O)O)cc4)cc13)-c1cc3c(c(=O)n1C2)COC(=O)[C@]3(O)CC`, the GI50 in the test with HCT-15 colon was 0.353 µM; with SNB-19 CNS it was less than 0.01 µM; in the test on M14 melanoma, less than 0.0156 µM; in the test on SK-MEL-2 melanoma, 0.63 µM; in the test on EKVX NSCLC, 0.614 µM; with MALME-3M melanoma it was 0.0576 µM. Further, the figures for the GI50 in the test on SK-MEL-28 melanoma, in the test with ACHN renal and in the test on LOX IMVI melanoma were 0.477 µM, less than 0.0179 µM and less than 0.01 µM, respectively. For the same compound, the TGI was greater than 43 µM with HCT-15 colon; greater than 39.6 µM in the test on SNB-19 CNS; 1.66 µM with M14 melanoma; greater than 64 µM in the test with EKVX NSCLC; 1.59 µM with MALME-3M melanoma; greater than 100 µM in the test on SK-MEL-28 melanoma. Moreover, the TGI came out at 0.589 µM with ACHN renal and 0.15 µM with LOX IMVI melanoma.

Turning to `O=C1C[C@H]2CCCN2[C@@H](c2ccccc2)C1`, the TGI in the test with SF-268 CNS, with HCT-15 colon, in the test on SNB-19 CNS, in the test on M14 melanoma, with SK-MEL-2 melanoma and with EKVX NSCLC was greater than 100 µM in each case. In addition, the TGI with MALME-3M melanoma, with SK-MEL-28 melanoma, in the test with ACHN renal and in the test with LOX IMVI melanoma was greater than 100 µM each time.

In the case of `CN(C)c1cc2ccccc2oc1=O`, the TGI in the test with SF-268 CNS, in the test with HCT-15 colon, with SNB-19 CNS, with M14 melanoma, in the test with SK-MEL-2 melanoma and in the test on EKVX NSCLC was greater than 100 µM throughout. Moreover, the TGI with MALME-3M melanoma, in the test on SK-MEL-28 melanoma, with ACHN renal and in the test on LOX IMVI melanoma was greater than 100 µM throughout.

Turning to `O=C(O)CCNS(=O)(=O)c1ccc(NC(=O)c2ccccc2)cc1`, the TGI in the test on SF-268 CNS, with HCT-15 colon, with SNB-19 CNS, in the test with M14 melanoma, in the test on SK-MEL-2 melanoma and in the test with EKVX NSCLC was greater than 100 µM throughout. Moreover, the TGI in the test on MALME-3M melanoma, in the test on SK-MEL-28 melanoma, in the test on ACHN renal and in the test with LOX IMVI melanoma was greater than 100 µM each time.

As to `c1ccc(NN(Cc2cnccn2)c2ccccc2)cc1`, the TGI in the test on SF-268 CNS, in the test on HCT-15 colon, with SNB-19 CNS, in the test on M14 melanoma, in the test on SK-MEL-2 melanoma and with EKVX NSCLC was greater than 100 µM each time. Besides, the TGI with MALME-3M melanoma, with SK-MEL-28 melanoma, with ACHN renal and in the test on LOX IMVI melanoma was greater than 100 µM each time.

Regarding `Nc1nc2ccc(-c3nc4ccc5[nH]ncc5c4c4c3CCC4)cc2s1`, the GI50 in the test with SF-268 CNS is 0.478 µM; in the test with HCT-15 colon it was 0.193 µM; in the test with SNB-19 CNS, 0.318 µM; with M14 melanoma, 0.172 µM; with SK-MEL-2 melanoma it was 0.567 µM; with EKVX NSCLC it was 0.916 µM. In addition, the GI50 in the test with MALME-3M melanoma is 0.202 µM; in the test on SK-MEL-28 melanoma it was 0.638 µM; with ACHN renal, 0.321 µM; with LOX IMVI melanoma, 0.281 µM. Further, the TGI is 20.2 µM with SF-268 CNS; 7.66 µM in the test on HCT-15 colon; 11.4 µM with SNB-19 CNS; 8.86 µM in the test on M14 melanoma; 8.08 µM with SK-MEL-2 melanoma; 8.05 µM in the test with EKVX NSCLC. In addition, the TGI in the test with MALME-3M melanoma is 1.63 µM; in the test with SK-MEL-28 melanoma it was 7.89 µM; in the test on ACHN renal, 6.58 µM; in the test with LOX IMVI melanoma, 8.9 µM.

For `CN(C(=O)/C=C/c1ccccc1)C1C2CN3CCC(O2)C13` (configuration not stated), the TGI with SF-268 CNS, with HCT-15 colon, with SNB-19 CNS, in the test on M14 melanoma, in the test with SK-MEL-2 melanoma and in the test with EKVX NSCLC was greater than 100 µM each time. For the same compound, the TGI with MALME-3M melanoma, with SK-MEL-28 melanoma, with ACHN renal and with LOX IMVI melanoma was greater than 100 µM in each case.

For `Cc1ccc(S(=O)(=O)SC/C=C\CSS(=O)(=O)c2ccc(C)cc2)cc1`, the TGI is > 73.2 µM and 74.4 µM in the test on SF-268 CNS; greater than 100 µM with HCT-15 colon; > 89.3 µM and 77.7 µM with SNB-19 CNS; 68.6 µM and 33.5 µM in the test on M14 melanoma; greater than 92.6 µM with SK-MEL-2 melanoma; greater than 100 µM in the test with EKVX NSCLC. Besides, the TGI was > 94.9 µM and 43.8 µM in the test with MALME-3M melanoma; > 78.8 µM and 35.5 µM with SK-MEL-28 melanoma; > 100 µM and 83.6 µM in the test with ACHN renal; 33.2 µM and 29.1 µM in the test with LOX IMVI melanoma. For the same compound, the GI50 in the test with HCT-15 colon is 6.16 µM and 43.4 µM; in the test with SK-MEL-28 melanoma, 39.7 µM and 18.8 µM; with LOX IMVI melanoma, 4.68 µM and 13.5 µM.

Turning to `CC(=O)Nc1ccc(-c2cc(C(=O)O)c3cc4ccccc4cc3n2)cc1`, the TGI in the test on SF-268 CNS, in the test on HCT-15 colon, in the test with SNB-19 CNS, with M14 melanoma, with SK-MEL-2 melanoma and in the test with EKVX NSCLC was greater than 100 µM throughout. Moreover, the TGI in the test with MALME-3M melanoma, with SK-MEL-28 melanoma, with ACHN renal and with LOX IMVI melanoma was greater than 100 µM each time.

Consider `CC(=O)c1c(O)c(C)c(O)c(Cc2c(O)c3c(c(C(=O)/C=C/c4ccccc4)c2O)OC(C)(C)C=C3)c1O`, for which the TGI with SF-268 CNS was found to be 85.7 µM; with HCT-15 colon it was 14.3 µM; in the test with SNB-19 CNS, 19.4 µM; with M14 melanoma, 18.4 µM; with SK-MEL-2 melanoma, 4.09 µM; with EKVX NSCLC, 12.9 µM. For the same compound, the TGI in the test on MALME-3M melanoma is 12.6 µM; in the test with SK-MEL-28 melanoma it was 14.9 µM; in the test with ACHN renal, 34.3 µM; in the test with LOX IMVI melanoma, 14.3 µM.

For the compound `COc1cc(C)ccc1C(=O)c1ccc(C)cc1OC`, the GI50 in the test on SF-268 CNS is 7.92 µM; in the test with HCT-15 colon, 1.1 µM; in the test with SNB-19 CNS, 7.31 µM; in the test with M14 melanoma it was 1.32 µM; in the test with SK-MEL-2 melanoma, 2.45 µM; with EKVX NSCLC it was 5.29 µM. The GI50 in the test with MALME-3M melanoma was 4.67 µM; in the test with SK-MEL-28 melanoma, 6.96 µM; in the test with ACHN renal it was 8.21 µM; with LOX IMVI melanoma it was 7.88 µM. In addition, the TGI with SF-268 CNS, with HCT-15 colon, in the test on SNB-19 CNS, in the test with M14 melanoma, in the test on SK-MEL-2 melanoma and with EKVX NSCLC was greater than 100 µM each time. Also, the TGI in the test with MALME-3M melanoma, with SK-MEL-28 melanoma, in the test with ACHN renal and in the test with LOX IMVI melanoma was greater than 100 µM each time.

Regarding `COC(=O)c1sc(C(=O)OC)c2c1CS(=O)C2`, the TGI in the test on SF-268 CNS, in the test on HCT-15 colon, in the test on SNB-19 CNS, in the test on M14 melanoma, with SK-MEL-2 melanoma and with EKVX NSCLC was greater than 100 µM throughout. Moreover, the TGI in the test with MALME-3M melanoma, in the test with SK-MEL-28 melanoma and in the test on LOX IMVI melanoma was greater than 100 µM throughout.

In the case of `IC[P+]1(c2ccccc2)CCCC1`, the TGI in the test on HCT-15 colon was greater than 100 µM; in the test on SNB-19 CNS it was greater than 100 µM; in the test on M14 melanoma, greater than 100 µM; with SK-MEL-2 melanoma, greater than 100 µM; with EKVX NSCLC it was 46.1 µM; in the test on MALME-3M melanoma, greater than 100 µM. Further, the TGI in the test with SK-MEL-28 melanoma, with ACHN renal and with LOX IMVI melanoma was greater than 100 µM each time.
